According to ChEMBL document CHEMBL4665663, “Anti-atherosclerosis effect of HS donors based on nicotinic acid and chlorfibrate structures” (Bioorg Med Chem, 2019):
Activity calls are given as the source filed them. The rule behind the calls is not given here.

Experiments:
RAW264.7 [1] = assay: Antioxidant activity in mouse RAW264.7 cells assessed as reduction in ox-LDL induced ROS accumulation at 10 to 50 uM preincubated for 10 mins followed by ox-LDL stimulation and measured after 24 hrs by DCFH-DA staining based fluorescence microscopic analysis; type: functional, cell-based; conditions: dose microM 10-50, time 10.0 min
WI-38 = assay: Cytotoxicity against human WI38 cells assessed as reduction in cell viability after 48 hrs by MTT assay; type: cell-based; conditions: WI-38, 48 h
RAW264.7 [2] = assay: Anti-atherosclerotic activity in mouse RAW264.7 cells assessed as decrease in ox-LDL induced intracellular lipid accumulation by measuring reduction in CE/TC ratio at 50 uM preincubated for 10 mins followed by ox-LDL stimulation and measured after 24 hrs by colorimetric method relative to control; type: functional; conditions: RAW264.7, 10 min
HUVEC [3] = assay: Anti-atherosclerotic activity against ox-LDL induced apoptosis in human HUVEC cells assessed as reduction in Bax expression at 10 to 50 uM preincubated for 10 mins followed by ox-LDL stimulation and measured after 24 hrs by ELISA; type: functional, cell-based; conditions: dose microM 10-50, time 10.0 min
RAW264.7 [4] = assay: Anti-inflammatory activity in mouse RAW264.7 cells assessed as decrease in ox-LDL induced inflammatory reaction by measuring decrease in TNF-alpha production preincubated for 10 mins followed by ox-LDL stimulation and measured after 24 hrs; type: functional, cell-based; conditions: dose microM 10-50, time 10.0 min
HUVEC [5] = assay: Anti-atherosclerotic activity against ox-LDL induced cell damage in human HUVEC cells assessed as reduction in late apoptotic and death cells preincubated for 10 mins followed by ox-LDL stimulation and measured after 24 hrs by PI staining based fluorescence microscopic analysis; type: functional
HUVEC [6] = assay: Cytotoxicity against human HUVEC cells assessed as reduction in cell viability at 10 to 100 uM by MTT assay; type: cell-based; conditions: dose 10-100 µM
RAW264.7 [7] = assay: Anti-atherosclerotic activity in mouse RAW264.7 cells assessed as decrease in ox-LDL induced intracellular lipid accumulation by measuring reduction in total cholesterol level at 50 uM preincubated for 10 mins followed by ox-LDL stimulation and measured after 24 hrs by colorimetric method relative to control; type: functional; conditions: RAW264.7, 10 min
RAW264.7 [8] = assay: Anti-atherosclerotic activity in mouse RAW264.7 cells assessed as decrease in ox-LDL induced PI3K protein expression at 10 to 50 uM preincubated for 10 mins followed by ox-LDL stimulation and measured after 24 hrs by Western blot analysis; type: functional, cell-based; conditions: dose microM 10-50, time 10.0 min
RAW264.7 [9] = assay: Inhibition of macrophage foam cell formation in mouse RAW264.7 cells assessed as reduction in ox-LDL induced red lipid droplets formation preincubated for 10 mins followed by ox-LDL stimulation and measured after 24 hrs by oil red O staining based inverted microscopy analysis; type: functional; conditions: dose microM 10-50, time 10.0 min
HUVEC [10] = assay: Anti-atherosclerotic activity against ox-LDL induced apoptosis in human HUVEC cells assessed as increase in bcl-2 expression at 50 uM preincubated for 10 mins followed by ox-LDL stimulation and measured after 24 hrs by ELISA; type: functional
RAW264.7 [11] = assay: Inhibition of macrophage foam cell formation in mouse RAW264.7 cells assessed as reduction in ox-LDL induced red lipid droplets formation at 50 uM preincubated for 10 mins followed by ox-LDL stimulation and measured after 24 hrs by oil red O staining based inverted microscopy analysis; type: functional
HUVEC [12] = assay: Cytotoxicity against human HUVEC cells assessed as reduction in cell viability after 48 hrs by MTT assay; type: cell-based
HUVEC [13] = assay: Cytoprotective activity against ox-LDL induced cell damage in human HUVEC cells assessed as cell viability at 100 uM preincubated for 10 mins followed by ox-LDL stimulation measured after 24 hrs by MTT assay (reference value: 73.1%); type: functional; conditions: read-out: Activity
[14] = Prodrug release in phosphate buffer containing L-cysteine assessed as H2S release by measuring H2S releasing half-life at 60 uM by methylene blue method; type: ADME
HUVEC [15] = assay: Cytoprotective activity against ox-LDL induced cell damage in human HUVEC cells assessed as increase in cell viability at 50 uM preincubated for 10 mins followed by ox-LDL stimulation measured after 24 hrs by MTT assay; type: functional, cell-based
HUVEC [16] = assay: Anti-atherosclerotic activity against ox-LDL induced apoptosis in human HUVEC cells assessed as reduction in caspase-3 expression at 10 to 50 uM preincubated for 10 mins followed by ox-LDL stimulation and measured after 24 hrs by ELISA; type: functional, cell-based; conditions: dose microM 10-50, time 10.0 min
RAW264.7 [17] = assay: Anti-atherosclerotic activity in mouse RAW264.7 cells assessed as decrease in ox-LDL induced NFkappaB protein expression at 10 to 50 uM preincubated for 10 mins followed by ox-LDL stimulation and measured after 24 hrs by Western blot analysis; type: functional, cell-based; conditions: dose microM 10-50, time 10.0 min
RAW264.7 [18] = assay: Anti-atherosclerotic activity in mouse RAW264.7 cells assessed as decrease in ox-LDL induced AKT protein expression at 10 to 50 uM preincubated for 10 mins followed by ox-LDL stimulation and measured after 24 hrs by Western blot analysis; type: functional, cell-based; conditions: dose microM 10-50, time 10.0 min
RAW264.7 [19] = assay: Anti-atherosclerotic activity in mouse RAW264.7 cells assessed as decrease in ox-LDL induced intracellular lipid accumulation by measuring reduction in free cholesterol level at 50 uM preincubated for 10 mins followed by ox-LDL stimulation and measured after 24 hrs by colorimetric method relative to control; type: functional; conditions: RAW264.7, 10 min
RAW264.7 [20] = assay: Antioxidant activity in mouse RAW264.7 cells assessed as reduction in ox-LDL induced oxidative stress by measuring decrease in MDA level at 50 uM preincubated for 10 mins followed by ox-LDL stimulation and measured after 24 hrs relative to control; type: functional; conditions: RAW264.7, 10 min
HUVEC [21] = assay: Anti-atherosclerotic activity against ox-LDL induced cell damage in human HUVEC cells assessed as reduction in nuclear pyknosis and apoptotic bodies formation preincubated for 10 mins followed by ox-LDL stimulation and measured after 24 hrs by Hoechst 33342 staining based fluorescence microscopy; type: functional
RAW264.7 [22] = assay: Anti-inflammatory activity in mouse RAW264.7 cells assessed as decrease in ox-LDL induced inflammatory reaction by measuring increase in IL-10 production preincubated for 10 mins followed by ox-LDL stimulation and measured after 24 hrs; type: functional, cell-based; conditions: dose microM 10-50, time 10.0 min
RAW264.7 [23] = assay: Antioxidant activity in mouse RAW264.7 cells assessed as reduction in ox-LDL-induced oxidative stress by measuring increase in SOD level at 50 uM preincubated for 10 mins followed by ox-LDL stimulation and measured after 24 hrs relative to control; type: functional; design: scale not given: the % may be the effect or the level left
H9c2 = assay: Cytotoxicity against rat H9c2 cells assessed as reduction in cell viability after 48 hrs by MTT assay; type: cell-based; conditions: H9c2, 48 h
HUVEC [24] = assay: Anti-atherosclerotic activity against ox-LDL induced cell damage in human HUVEC cells assessed as reduction in early apoptotic cells by measuring increase in mitochondrial membrane potential preincubated for 10 mins followed by ox-LDL stimulation and measured after 24 hrs by JC-1 staining based fluorescence microscopic analysis; type: functional
RAW264.7 [25] = assay: Cytotoxicity against mouse RAW264.7 cells assessed as reduction in cell viability after 48 hrs by MTT assay; type: cell-based; conditions: RAW264.7, 48 h
RAW264.7 [26] = assay: Anti-atherosclerotic activity in mouse RAW264.7 cells assessed as decrease in ox-LDL induced intracellular lipid accumulation by measuring reduction in free cholesterol level at 10 to 50 uM preincubated for 10 mins followed by ox-LDL stimulation and measured after 24 hrs by colorimetric method; type: functional, cell-based; conditions: dose microM 10-50, time 10.0 min
RAW264.7 [27] = assay: Anti-atherosclerotic activity in mouse RAW264.7 cells assessed as decrease in ox-LDL induced intracellular lipid accumulation by measuring reduction in total cholesterol level at 10 to 50 uM preincubated for 10 mins followed by ox-LDL stimulation and measured after 24 hrs by colorimetric method; type: functional, cell-based; conditions: dose microM 10-50, time 10.0 min

Compound	Activity (RAW264.7 [1])	IC50 (WI-38)	inhibition at 50 µM (RAW264.7 [2])	Activity (HUVEC [3])	Activity (RAW264.7 [4])	Activity (HUVEC [5])	Activity (HUVEC [6])	Activity (RAW264.7 [8])	inhibition (RAW264.7 [9])	Activity (HUVEC [10])	inhibition (RAW264.7 [11])	IC50 (HUVEC [12])	viability at 100 µM (HUVEC [13])	t1/2 [14]	Activity (HUVEC [15])	Activity (HUVEC [16])	Activity (RAW264.7 [17])	Activity (RAW264.7 [18])	inhibition at 50 µM (RAW264.7 [20])	Activity (HUVEC [21])	further results
CC(C)(Oc1ccc(Cl)cc1)C(=O)OCCCOC(=O)CCCCC1CCSS1 (centres undefined)	Active	> 800 µM	30.9%	Active	Dose-dependent effect	Active	Non-Toxic	Active	Dose-dependent effect	31.9%	Active	> 800 µM	89.2%	21.3 min	Active	Active	Active	Active	41%	Active	inhibition at 50 µM (RAW264.7 [7]): 52.4%; inhibition at 50 µM (RAW264.7 [19]): 25.4%; Activity (RAW264.7 [22]): Dose-dependent effect; Activity (RAW264.7 [23]): 45.4%; IC50 (H9c2): > 800 µM; Activity (HUVEC [24]): Active; IC50 (RAW264.7 [25]): > 800 µM
O=C(CCCCC1CCSS1)OCCCOC(=O)c1cccnc1 (centres undefined)	Active	> 800 µM	32.4%	Active	Dose-dependent effect	Active	Non-Toxic	Active	Dose-dependent effect	32.7%	Active	> 800 µM	85.9%	15.3 min	Active	Active	Active	Active	47%	Active	Activity (RAW264.7 [26]): Active; Activity (RAW264.7 [22]): Dose-dependent effect; Activity (RAW264.7 [27]): Active; Activity (RAW264.7 [23]): 48.3%; IC50 (H9c2): > 800 µM; Activity (HUVEC [24]): Active; IC50 (RAW264.7 [25]): > 800 µM
